Assay [1] has as its system hepatitis B virus (HBV) ayw strain. Briefly: HBV experimental assay system (secreted HBV DNA, TaqMan PCR). It counts as cell-based. The conditions noted are these: 10 micrograms per ml; HepG2-2.2.15 cells; six days. For orientation: Quantitative PCR measures a nucleic acid by following its amplification.
In assay [2] the test system is A549 cells. Briefly: Apoptosis prevention assay (C2 ceramide, Annexin-5). It counts as cell-based, human. The conditions noted are these: 10 micrograms per ml, 30 min pretreatment.
Procedure: Human A549 cells (carcinomic human alveolar basal epithelial cells) were utilized in the experiments employing the Annexin-5 apoptosis assay. […] A549 cells were pretreated for 30 min with test peptides—10 micrograms per ml—followed by the exposure to C2 ceramide.
The subject of assay [3] is TNF-a spleen cells. The assay is described as follows: Th1/Th2 cytokine profiling assay, TNF-a. In kind it is cell-based, Balb/c mice. The conditions noted are these: 10 micrograms per ml; Ovalbumin restimulation; 72 hours.
Source text: (§1) The Balb/c mice (originated in 1923, it is a popular strain and is used in many different research disciplines. Also classified as an inbred from the production of 20 or more successive brother-sister matings, the Balb/c mouse is albino and small in size) were immunized on Days 1, 15, and 29 with Ovalbumin (Ovalbumin is the main protein found in egg white, commonly used to stimulate an immunological reaction in test animals) in PBS (5 micrograms/injection). On day 50, spleens of the mice were harvested (3 weeks after last boost with Ovalbumin). […] Thereafter, additional Ovalbumin was added to the cells at 10 micrograms/ml for in vitro restimulation of the cells. 72 hours later, cell supernatants were harvested and assayed using the Becton Dickinson Mouse Th1/Th2 Cytokine CBA Kit.
Assay [4] has as its system IFNγ spleen cells. Briefly: Th1/Th2 cytokine profiling assay, IFNγ. In kind it is cell-based, Balb/c mice. The conditions noted are these: 10 micrograms per ml; Ovalbumin restimulation; 72 hours.
Source text: as §1
The test system of assay [5] is IL-2 spleen cells. The assay is described as follows: Th1/Th2 cytokine profiling assay, IL-2. The conditions noted are these: 10 micrograms per ml; Ovalbumin restimulation; 72 hours. In kind it is cell-based, Balb/c mice.
Source text: as §1
Assay [6] relates to IL-4 spleen cells. The assay is described as follows: Th1/Th2 cytokine profiling assay, IL-4. In kind it is cell-based, Balb/c mice. The conditions noted are these: 10 micrograms per ml; Ovalbumin restimulation; 72 hours.
Source text: as §1
Assay [7] has as its system IL-5 spleen cells. The assay is described as follows: Th1/Th2 cytokine profiling assay, IL-5. The conditions noted are these: 10 micrograms per ml; Ovalbumin restimulation; 72 hours. It counts as cell-based, Balb/c mice.
Source text: as §1
Assay [8] deals with RAW 264.7 cells. Briefly: Phagocytosis assay (Fluorescein-labeled Escherichia coli, flow cytometry). The conditions noted are these: 10 micrograms per ml.
The subject of assay [9] is HIV-1IIIB. Briefly: HIV-1 antiviral assay in CEM-SS cells (MTS readout). In kind it is cell-based.
The subject of assay [10] is HCMV strain AD169. Briefly: HCMV plaque formation assay in MRC-5 cells.

No end group written: not given here.

With Pyr-His-Pro-NH2 [Peptide 2], in assay [1], the “inhibition of HBV replication as compared to the virus control infection” value is “no effect”. The “prevention (reduction) of ceramide-induced apoptosis on human lung cells” value in [2] is recorded as 17.2%. The “TNF-a spleen cells; TH1 response (% of control)” value in [3] is 110.7 % of control. In addition, in [4], the “IFNγ spleen cells; TH1 response (% of control)” value is reported as 102.0 % of control. The “IL-2 spleen cells (% of control)” value in assay [5] is 0.0 % of control. Besides, the “IL-4 spleen cells; TH2 response (% of control)” value in assay [6] was 106.2 % of control. Also, the “IL-5 spleen cells; TH2 response (% of control)” value in [7] is recorded as 67.5 % of control. Moreover, the “increase of the phagocytic activity of murine macrophages” value in [8] worked out at 31.4%.

For `CC(C)(C)NC(=O)[C@@H]1CN(Cc2cccnc2)CCN1C[C@@H](O)C[C@@H](Cc1ccccc1)C(=O)N[C@H]1c2ccccc2C[C@H]1O` [indinavir], in [9], the “antiviral activity of positive control compounds (HIV-1)” value is on record as “expected levels of antiviral activity”.

`Nc1nc(O)c2ncn(COC(CO)CO)c2n1` [Ganciclovir]: the “antiviral activity of positive control compound (HCMV)” value in [10] is on record as “expected levels of antiviral activity”.

For “Arg-Pro-Lys-Pro-Gln-Gln-Phe-Phe-Gly-Leu-Met-NH2 (RPKPQQFFGLM-NH2) [Peptide 1]”, in assay [1], the “inhibition of HBV replication as compared to the virus control infection” value came out at 30.2%. Also, the “prevention (reduction) of ceramide-induced apoptosis on human lung cells” value in assay [2] was 10.9%. Further, in assay [3], the “TNF-a spleen cells; TH1 response (% of control)” value is 101.0 % of control. The “IFNγ spleen cells; TH1 response (% of control)” value in assay [4] is 136.4 % of control. Moreover, the “IL-2 spleen cells (% of control)” value in assay [5] was 113.6 % of control. The “IL-4 spleen cells; TH2 response (% of control)” value in [6] is reported as 106.2 % of control. In addition, in assay [7], the “IL-5 spleen cells; TH2 response (% of control)” value is recorded as 64.0 % of control. Also, the “increase of the phagocytic activity of murine macrophages” value in assay [8] was found to be 28.6%.

With `Cc1cn([C@H]2C[C@H](N=[N+]=[N-])[C@@H](CO)O2)c(=O)[nH]c1=O` [AZT], the “antiviral activity of positive control compounds (HIV-1)” value in assay [9] was “expected levels of antiviral activity”.

Source of the values: US20100190722A1, “SUBSTANCE P AND THYROTROPIN RELEASING HORMONE FOR THERAPEUTIC APPLICATIONS” (priority 2007, published 2010).
